Results reported in patent publication EP1348714B1, “Polypeptide useful as anti-allergic/antiasthmatic, methods for the preparation thereof and pharmaceutical compositions containing such polypeptide and their use” (COUNCIL OF SCIENTIFIC AND INDUSTRIAL RESEARCH, priority 2002, dated 2003).
Square brackets hold non-standard residues; d marks the D form. Peptide text beside a SMILES is read from it. Sar = CNCC(=O)O

Experiments:
[1] = other pharmacological studies (cardiovascular, CNS, anti-inflammatory, diuretic); assay type: in vivo; details: up to a dose of 10 mg/kg
[2] = test system: Sensitised mast cells (Immunological: Egg albumin); assay: mast cell degranulation by egg albumin in sensitised mast cells; assay type: in vivo, rats; details: dose 50.0 pro (10.0 x 5 d) mg/kg x days
[3] = test system: passive cutaneous anaphylaxis (PCA); assay: passive cutaneous anaphylaxis (PCA) test in rats; assay type: in vivo
[4] = test system: Egg-albumin; assay: aerosol test, egg-albumin challenge in sensitised guinea pigs; assay type: in vivo; details: dose 50 mg/kg (ip)
[5] = test system: sensitised guinea pig ileum; assay: antigen (egg albumin) induced contraction of sensitised guinea pig ileum (Schultz-Dale phenomenon)
[6] = test system: Normal mast cells (Noninnunological: Comp. 48/80); assay: mast cell degranulation by comp 48/80 in normal mast cells; assay type: in vivo, rats; details: dose 50.0 pro (10.0 x 5 d) mg/kg x days

Row | SMILES | cardiovascular, Central Nervous System (CNS), anti-inflammatory, diuretic activities [1] | % Protection [2] [%] | anti PCA activity ([3]; rat, 50 mg/kg by nasal route) [%] | % Anti-PCA activity ([3]; rats, dose 50.0 mg/kg (IP)) [%] | % Protection Egg-albumin [4] [%] | % Protection to ileum contraction induced by egg albumin ([5]; concentration 1.0 (unit not given)) | % Protection to ileum contraction induced by egg albumin ([5]; concentration 2.0 (unit not given)) [%] | % Protection to ileum contraction induced by egg albumin ([5]; concentration 3.0 (unit not given)) [%] | % Protection [6] [%]
1 | C[C@H](N)C(=O)NCC(=O)NCC(=O)N[C@@H](CC(=O)O)C(=O)N(C)CC(=O)N[C@@H](CCCCN)C(=O)O [96/199, L-alanyl-glycyl-glycyl-L-aspartyl-sar-L-1ys] (H-AGGD[Sar]K-OH) | No significant effects | – | – | – | – | – | – | – | –
2 | O=C([O-])c1cc(=O)c2c(OCC(O)COc3cccc4oc(C(=O)[O-])cc(=O)c34)cccc2o1.[Na+].[Na+] [DSCG, disodium cromoglycate] | – | 71 | 81 | 77 | 64 | No block | 18 | 59 | 72
